Drawing on patent US5441932A, “Sugar compounds for inhibition of the biosynthesis of sugar chains containing sialic acid” (priority 1992, dated 1995), this text covers Decomposition in acid, Solubility and IC50 for 17 molecules.

The labels stand for the following.
B1: 2-acetamide-2-deoxy-4-O-(6-deoxy-β-D-galactopyranosyl)-β-D-glucopyranosylated ovalbumin (conjugate, UniProt P01012 2-386, looked up)
Ovalbumin: GSIGAASMEFCFDVFKELKVHHANENIFYCPIAIMSALAMVYLGAKDSTRTQINKVVRFDKLPGFGDSIEAQCGTSVNVHSSLRDILNQITKPNDVYSFSLASRLYAEERYPILPEYLQCVKELYRGGLEPINFQTAADQARELINSWVESQTNGIIRNVLQPSSVDSQTAMVLVNAIVFKGLWEKAFKDEDTQAMPFRVTEQESKPVQMMYQIGLFRVASMASEKMKILELPFASGTMSMLVLLPDEVSGLEQLESIINFEKLTEWTSSNVMEERKIKVYLPRMKMEEKYNLTSVLMAMGITDVFSSSANLSGISSAESLKISQAVHAAHAEINEAGREVVGSAEAGVDAASVSEEFRADHPFLFCIKHIATNAVLFFGRCVSP
modifications: glycosylated with fucosyl-GlcNAc disaccharide
notes: sugar compound represented by the aforementioned formula (1) in which R^1 is ovalbumin and R^2 is hydrogen
B2: 2-acetamide-2-deoxy-4-O-(6-deoxy-β-D-galactopyranosyl)-β-D-glucopyranosylated glycophorin (conjugate, UniProt P02724 20-150, looked up)
Glycophorin-A: LSTTEVAMHTSTSSSVTKSYISSQTNDTHKRDTYAATPRAHEVSEISVRTVYPPEEETGERVQLAHHFSEPEITLIIFGVMAGVIGTILLISYGIRRLIKKSPSDVKPLPSPDTDVPLSSVEIENPETSDQ
modifications: glycosylated with fucosyl-GlcNAc disaccharide
notes: sugar compound represented by the aforementioned formula (1) in which R^1 is glycophorin and R^2 is hydrogen

“Also recorded” adds a separate entry of the source.

Tested on in the first data set: not listed separately
Put plainly: Stability in acid (physical properties).
Details: not given
The class given is physicochemical.
For `C[C@H]1O[C@H](OP(=O)(O)OP(=O)(O)OC[C@H]2O[C@@H](n3ccc(=O)[nH]c3=O)[C@H](O)[C@@H]2O)[C@H](O)[C@@H](O)[C@H]1O` [intermediate b, uridine 5'-diphosphate-6-deoxy-D-galactose], the Decomposition in acid entry is on record as “Decomposed in acid”.

Tested on in a further data set: not listed separately
The data set is described as follows: Solubility (physical properties). The data set is classed as physicochemical. Conditions: qualitative, in words.
“2-acetamide-2-deoxy-4-O-(6-deoxy-β-D-galactopyranosyl)-β-D-glucopyranosylated α2-macroglobulin [Sugar compound F]”: the Solubility entry is “Soluble in water and various buffer solutions. Hardly soluble in organic solvents”.
For “2-acetamide-2-deoxy-4-O-( 6-deoxy-β-D-galactopyranosyl)-β -D-glucopyranosylated fetuin [Sugar compound D]”, the Solubility entry is “Soluble in water and various buffer solutions. Hardly soluble in organic solvents”.
Same read-out and setting: with `CO[C@@H]1O[C@H](CO)[C@@H](O[C@@H]2O[C@H](C)[C@H](O)[C@H](O)[C@H]2O)[C@H](O)[C@H]1NC(C)=O` [Sugar compound A, methyl-2-acetamide-2-deoxy-4-O-(6-deoxy-β-D-galactopyranosyl)-β-D-glucopyranoside] the entry was “Soluble in water, alkaline solutions, acid solutions, various buffer solutions, methanol, and ethanol. Hardly soluble in hexane and in chloroform”; with `CC(=O)N[C@H]1C(O)O[C@H](CO)[C@@H](O[C@@H]2O[C@H](C)[C@H](O)[C@H](O)[C@H]2O)[C@@H]1O` (stereo partly drawn) [Sugar compound B, α- and β-2-acetamide-2-deoxy-4-O-(6-deoxy-β-D-galactopyranosyl)-D-glucose], “Soluble in water, alkaline solutions, acid solutions, various buffer solutions, methanol, and ethanol. Hardly soluble in hexane and in chloroform”; with `CO[C@@H]1O[C@H](CO)[C@@H](O[C@@H]2O[C@H](COC3CCCCO3)[C@H](O)[C@H](O)[C@H]2O)[C@H](O)[C@H]1NC(C)=O` (stereo partly drawn) [Sugar compound G, methyl-2-acetamide-2-deoxy-4-O-(6-O-tetrahydropyranyl-β-D-galactopyranosyl)-β-D-glucopyranoside], “Soluble in water, alkaline solutions, acid solutions, various buffer solutions, methanol, and ethanol. Hardly soluble in hexane and in chloroform”.
As for `CO[C@@H]1O[C@H](CO)[C@@H](O[C@@H]2O[C@H](CS)[C@H](O)[C@H](O)[C@H]2O)[C@H](O)[C@H]1NC(C)=O` [Sugar compound H, methyl-2-acetamide-2-deoxy-4-O-(6-mercapto-β-D-galactopyranosyl)-β-D-glucopyranoside], the Solubility entry is “Soluble in water, alkaline solutions, acid solutions, various buffer solutions, methanol, and ethanol. Hardly soluble in hexane and in chloroform”.
Same read-out and setting: with `C[C@H]1O[C@H](OP(=O)(O)OP(=O)(O)OC[C@H]2O[C@@H](n3ccc(=O)[nH]c3=O)[C@H](O)[C@@H]2O)[C@H](O)[C@@H](O)[C@H]1O` [intermediate b, uridine 5'-diphosphate-6-deoxy-D-galactose] the entry was “Soluble in water, alkaline solutions, and various buffer solutions; also recorded: Hardly soluble in organic solvents”; with `CO[C@@H]1O[C@H](COC(C)=O)[C@@H](O[C@@H]2O[C@@H]3COC(c4ccccc4)O[C@@H]3[C@H](OC(C)=O)[C@H]2OC(C)=O)[C@H](OC(C)=O)[C@H]1NC(C)=O` (stereo partly drawn) [intermediate c, methyl-2-acetamide-3,6-di-O-acetyl-2-deoxy-4-O-(2,3-di-O-acetyl-4,6-O-benzylidene-β-D-galactopyranosyl)-β-D-glucopyranoside], “Soluble in chloroform, methanol, and ethanol. Hardly soluble in water and various buffer solutions”.
Consider `CO[C@@H]1O[C@H](COC(C)=O)[C@@H](O[C@@H]2O[C@H](CO)[C@H](O)[C@H](OC(C)=O)[C@H]2OC(C)=O)[C@H](OC(C)=O)[C@H]1NC(C)=O` [intermediate d, methyl-2-acetamide-3,6-di-O-acetyl-2-deoxy-4-O-(2,3-di-O-acetyl-β-D-galactopyranosyl)-β-D-glucopyranoside], for which the Solubility result is “Soluble in chloroform, methanol, and ethanol. Hardly soluble in water and various buffer solutions”.
Same read-out and setting: with `CO[C@@H]1O[C@H](COC(C)=O)[C@@H](O[C@@H]2O[C@H](CO[Si](C)(C)C(C)(C)C)[C@H](OC(C)=O)[C@H](OC(C)=O)[C@H]2OC(C)=O)[C@H](OC(C)=O)[C@H]1NC(C)=O` [intermediate e, methyl-2-acetamide-3,6-di-O-acetyl-2-deoxy-4-O-(2,3,4-tri-O-acetyl-6-O-t-butyldimethylsilyl-β-D-galactopyranosyl)-β-D-glucopyranoside] the entry was “Soluble in chloroform, methanol, and ethanol. Hardly soluble in water and various buffer solutions”; with `CO[C@@H]1O[C@H](COC(C)=O)[C@@H](O[C@@H]2O[C@H](CO)[C@H](OC(C)=O)[C@H](OC(C)=O)[C@H]2OC(C)=O)[C@H](OC(C)=O)[C@H]1NC(C)=O` [intermediate f, methyl-2-acetamide-3,6-di-O-acetyl-2-deoxy-4-O-(2,3,4-tri-O-acetyl-β-D-galactopyranosyl)-β-D-glucopyranoside], “Soluble in chloroform, methanol, and ethanol. Hardly soluble in water and various buffer solutions”.
The same measure, in the same setting: the same measure for `CO[C@@H]1O[C@H](COC(C)=O)[C@@H](O[C@@H]2O[C@H](COC3CCCCO3)[C@H](OC(C)=O)[C@H](OC(C)=O)[C@H]2OC(C)=O)[C@H](OC(C)=O)[C@H]1NC(C)=O` (stereo partly drawn) [intermediate g, methyl-2-acetamide-3,6-di-O-acetyl-2-deoxy-4-O-(2,3,4-tri-O-acetyl-6-O-tetrahydropyranyl-β-D-galactopyranosyl)-β-D-glucopyranoside]: “Soluble in chloroform, methanol, and ethanol. Hardly soluble in water and various buffer solutions”; for `CO[C@@H]1O[C@H](COC(C)=O)[C@@H](O[C@@H]2O[C@H](COS(=O)(=O)c3ccc(C)cc3)[C@H](OC(C)=O)[C@H](OC(C)=O)[C@H]2OC(C)=O)[C@H](OC(C)=O)[C@H]1NC(C)=O` [intermediate h, methyl-2-acetamide-3,6-di-O-acetyl-2-deoxy-4-O-(2,3,4-tri-O-acetyl-6-O-p-toluenesulfonyl-β-D-galactopyranosyl)-β-D-glucopyranoside]: “Soluble in chloroform, methanol, and ethanol. Hardly soluble in water and various buffer solutions”; for `CO[C@@H]1O[C@H](COC(C)=O)[C@@H](O[C@@H]2O[C@H](CSC(C)=O)[C@H](OC(C)=O)[C@H](OC(C)=O)[C@H]2OC(C)=O)[C@H](OC(C)=O)[C@H]1NC(C)=O` [intermediate i, methyl-2-acetamide-3,6-di-O-acetyl-2-deoxy-4-O-(2,3,4-tri-O-acetyl-6-S-acetyl-6-deoxy-β-D-galactopyranosyl)-β-D-glucopyranoside]: “Soluble in chloroform, methanol, and ethanol. Hardly soluble in water and various buffer solutions”.
As to B1, the Solubility entry was “Soluble in water and various buffer solutions. Hardly soluble in organic solvents”.
In the case of B2, the Solubility entry was “Soluble in water and various buffer solutions. Hardly soluble in organic solvents”.

A further data set has as its target β-galactoside-α-2, 6-sialyltransferase. The data set is described as follows: Inhibition of β-galactoside-α-2,6-sialyltransferase enzyme activity (biosynthesis of sugar chains containing sialic acid, test system of Paulson et al.). Conditions: β-galactoside-α-2,6-sialyltransferase 1×10^-6 units, 0.075 nmol CMP-14C sialic acid, 3 mM β-methyllactosaminide, pH 6.5, 37° C., 10 minutes; read-out: 50% activity inhibition concentration. The class given is biochemical.
Description: In other words, the tests were conducted using a test system of the biosynthesis of sialic acid-sugar chains containing sialic acid which was reported by Paulson et al.
A tester solution was prepared containing the following respective reagents in 50 μl of final contents:
100 mM sodium cacodylate buffer solution (pH 6.5);
0.075 nmol cytidine-monophosphate-14C sialic acid;
3 mM β-methyllactosaminide;
A specimen compound was added in 50 μl of the tester solution, and, with addition of 1×10^-6 units of β-galactoside-α-2, 6-sialyltransferase commercially available, the mixture was left to stand at 37° C. for 10 minutes. 1 ml of 5 mM phosphoric acid buffer solution was added to stop the reaction. Then the solution was passed through an anion-exchange resin column (Dowex-1X8, phosphoric acid type, 1 ml) to remove unreacted cytidine-monophosphate-14C sialic acid. Further, the column was washed with 1 ml of 5 mM phosphoric acid buffer solution to recover radioactive sialic acid-containing sugar chains. The radioactivity was measured by a liquid scintillation counter.
The thus-measured radioactivity was shown by percentage to the radioactivity of untreated section not including the specimen compound, which was defined as inhibition activity.
On to “2-acetamide-2-deoxy-4-O-(6-deoxy-β-D-galactopyranosyl)-β-D-glucopyranosylated ovalbumin [Sugar compound C, sugar compound represented by the aforementioned formula (1) in which R^1 is ovalbumin and R^2 is hydrogen]”, for which the IC50 is 10 µM.
On the same count and under the same terms, with “2-acetamide-2-deoxy-4-O-(6-deoxy-β-D-galactopyranosyl)-β-D-glucopyranosylated α2-macroglobulin [Sugar compound F]” the figure was 1 µM.
In the case of “2-acetamide-2-deoxy-4-O-( 6-deoxy-β-D-galactopyranosyl)-β -D-glucopyranosylated fetuin [Sugar compound D]”, the IC50 is 4.2 µM.
On to B2, for which the IC50 worked out at 2.7 µM.
